{"source": "patent US9365830B2", "about": "“Agents and methods for inhibiting human pluripotent stem cell growth” (VIACYTE, INC., priority 2010, dated 2016)", "system": "pancreatic endoderm differentiations of hESCs", "experiment": "Suspension aggregate differentiation to pancreatic endoderm after Stage 1 treatment, Q-PCR", "format": "cell-based, human", "conditions": "Stage 1 cultures treated with 0.1 μM Caffeic acid or 0.17 μM Ivermectin", "method": "FIGS. 10A-10I are bar graphs showing the relative gene expression levels of OCT4 (FIG. 10A), MIXL (FIG. 10B), HNF1B (FIG. 10C), HNF4A (FIG. 10D), PAX4 (FIG. 10E), NGN3 (FIG. 10F), NKX2.2 (FIG. 10G), NKX6.1 (FIG. 10H), and PTF1A (FIG. 10I) after treatment of suspension aggregate cell cultures at Stages 1 with DMSO (Control), 0.1 μM Caffeic acid or 0.17 μM Ivermectin agents. Untreated control samples were collected at d0 and d1 (left panel). Treated samples were collected at d2, d3, d5, d7, d9, d11, and d13. The columns for each day of the treated samples are (from left to right): DMSO, Caffeic acid, and Ivermectin. The cultures were differentiated to the end of Stage 4. The results from an untreated, pancreatic endoderm differentiation are shown on the right, with samples collected on days 0, 1, 2, 5, 8, 10 and 14.\nTo further determine the effects of the above compounds (excluding those compounds that induced off-target differentiation), three selected compounds (chelerythrine chloride (FIGS. 5 & 6), caffeic acid and Ivermectin) were screened for effects on later stages of pancreatic differentiation, (such as Stages 2-5). Human ESCs were first differentiated through Stage 1 then to Stages 2 to 5 in suspension aggregate cultures similar to that above. Stage 1 cultures were treated with DMSO, caffeic acid or Ivermectin substantially as described above. Untreated control samples were collected at d0 (hESC) and d1 (FIG. 10, left panel), while treated samples were collected at days 2, 3, 5, 7, 9, 11 and 13 (FIG. 10 d2, d3, d5, d7, d9, d11 and d13 respectively). Gene expression levels in the collected samples were analyzed using Q-PCR and compared to the d0 (hESC) sample as well as qualified pancreatic endoderm (FIG. 10, right panel). The qualified pancreatic endoderm control consisted of about 50% pancreatic endoderm, about 46% endocrine cells and about 4% “other” cells as determined by flow cytometry. Neither caffeic acid nor Ivermectin affected survival, growth and/or proliferation of pancreatic endoderm differentiations. […] Typical gene expression levels for Stages 3, 4 and 5 cells were normal; for example, increased expression of NKX6.1 and PTF1A at Stage 4, pancreatic endoderm (FIGS. 10H and 10I), and of NGN3 and NKX2.2 at Stage 5, endocrine precursor and endocrine cells (FIGS. 10 F and 10G) was observed.", "data": [{"substance": "22, 23-dihydroavermectin B1a+22,23-dihydroavermectin B1b [Ivermectin]", "values": [{"measurement": "Typical gene expression levels for Stages 3, 4 and 5 cells (NKX6.1, PTF1A, NGN3, NKX2.2)", "setting": "Q-PCR d2-d13", "result": "normal"}, {"measurement": "survival, growth and/or proliferation of pancreatic endoderm differentiations (pancreatic endoderm viability)", "setting": "differentiated to end of Stage 4", "result": "did not affect pancreatic endoderm viability"}]}]}
